# In ChEMBL document CHEMBL4616616, “Identification of a C3'-nitrile nucleoside analogue inhibitor of pancreatic cancer cell line growth” (Bioorg Med Chem Lett, 2020):
# Active and inactive are the calls of the source. The rule behind the calls is not given here.
# How the values were obtained:
# BXPC-3 [1] = test: Antiproliferative activity against human BxPC3 cells harboring wild type KRAS and TP53 mutation assessed as inhibition of cell growth at 25 uM incubated for 96 hrs by cell-titer-Glo 2.0 assay; format: functional, cell-based
# Capan-2 [2] = test: Antiproliferative activity against human Capan2 cells harboring TP53 and G12V KRAS mutations assessed as inhibition of cell growth at 25 uM incubated for 96 hrs by cell-titer-Glo 2.0 assay
# Capan-2 [3] = test: Antiproliferative activity against human Capan2 cells harboring TP53 and G12V KRAS mutations assessed as inhibition of cell growth incubated for 96 hrs by cell-titer-Glo assay; details: Capan-2, 96 h
# Capan-2 [4] = test: Antiproliferative activity against human Capan2 cells harboring TP53 and G12V KRAS mutations assessed as cell killing incubated for 96 hrs by cell-titer-Glo 2.0 assay relative to control
# BXPC-3 [5] = test: Antiproliferative activity against human BxPC3 cells harboring wild type KRAS and TP53 mutation assessed as inhibition of cell growth incubated for 96 hrs by cell-titer-Glo 2.0 assay; format: functional, cell-based; details: BXPC-3, 96 h
# BXPC-3 [6] = test: Antiproliferative activity against human BxPC3 cells harboring wild type KRAS and TP53 mutation assessed as cell killing incubated for 96 hrs by cell-titer-Glo 2.0 assay relative to control; format: functional
# BXPC-3 [7] = test: Antiproliferative activity against human BxPC3 cells harboring wild type KRAS and TP53 mutation assessed as maximal inhibition of cell growth at 2.5 uM incubated for 96 hrs by cell-titer-Glo assay; format: functional, cell-based
# Capan-2 [8] = test: Antiproliferative activity against human Capan2 cells harboring TP53 and G12V KRAS mutations assessed as inhibition of cell growth incubated for 96 hrs by cell-titer-Glo 2.0 assay relative to control
compound,measurement,setting,value
C[C@]1(CC#N)[C@H](F)[C@H](n2cnc3c(N)nc(Cl)nc32)O[C@@H]1CO,inhibition,BXPC-3 [1],inactive
same,inhibition,Capan-2 [2],inactive
CC(C)OC(=O)[C@H](C)N[P@](=O)(OC[C@H]1O[C@@H](n2cnc3c(NCc4ccccc4)nc(Cl)nc32)[C@@H](F)[C@]1(C)CC#N)Oc1ccccc1,EC50,Capan-2 [3],7 µM
same,Activity,Capan-2 [4],80%
same,EC50,BXPC-3 [5],12 µM
same,Activity,BXPC-3 [6],60%
Nc1ccn([C@@H]2O[C@H](CO)[C@@H](O)C2(F)F)c(=O)n1 [GEMCITABINE],inhibition,BXPC-3 [7],Active
same,Imax,Capan-2 [8],40%
C[C@]1(CC#N)[C@H](F)[C@H](n2cnc3c(NCc4ccccc4)nc(Cl)nc32)O[C@@H]1CO,Activity,BXPC-3 [6],20%
